Measurements as given in PubChem BioAssay AID1963964 (Molecular Pharmacology Branch, DTP, NCI, 2024).

Tested on: 997726-040-R-J2-PDC tumor spheroids, viability
Experiment: Anticancer human tumor 997726-040-R-J2-PDC patient-derived squamous cell lung carcinoma cell line growth inhibition [PI3K]
Conditions: spheroids with HUVEC and MSC; for IC50: curve of first compound; for viability, T/C: stronger effect = lower value
Method in brief: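 Complex 3D spheroids (cancer cells + endothelial HUVEC + mesenchymal stem cells); drug pairs of targeted agent x inavolisib/alpelisib/duvelisib/copanlisib; half-log series from ~Cmax, max 10 microM if Cmax unknown; endpoint viability.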

[1] = second compound 0.00316 µM, first compound 0.0316 µM
[2] = second compound 0.00316 µM, first compound 0.1 µM
[3] = second compound 0.00316 µM, first compound 0.316 µM
[4] = second compound 0.00316 µM, first compound 1 µM
[5] = second compound 0.00316 µM, first compound 3.16 µM
[6] = second compound 0.00316 µM, first compound 10 µM
[7] = second compound 0.01 µM, first compound 0.0316 µM
[8] = second compound 0.01 µM, first compound 0.1 µM
[9] = second compound 0.01 µM, first compound 0.316 µM
[10] = second compound 0.01 µM, first compound 1 µM
[11] = second compound 0.01 µM, first compound 3.16 µM
[12] = second compound 0.01 µM, first compound 10 µM
[13] = second compound 0.0316 µM, first compound 0.0316 µM
[14] = second compound 0.0316 µM, first compound 0.1 µM
[15] = second compound 0.0316 µM, first compound 0.316 µM
[16] = second compound 0.0316 µM, first compound 1 µM
[17] = second compound 0.0316 µM, first compound 3.16 µM
[18] = second compound 0.0316 µM, first compound 10 µM
[19] = second compound 0.1 µM, first compound 0.0316 µM
[20] = second compound 0.1 µM, first compound 0.1 µM
[21] = second compound 0.1 µM, first compound 0.316 µM
[22] = second compound 0.1 µM, first compound 1 µM
[23] = second compound 0.1 µM, first compound 3.16 µM
[24] = second compound 0.1 µM, first compound 10 µM
[25] = second compound 0.316 µM, first compound 0.0316 µM
[26] = second compound 0.316 µM, first compound 0.1 µM
[27] = second compound 0.316 µM, first compound 0.316 µM
[28] = second compound 0.316 µM, first compound 1 µM
[29] = second compound 0.316 µM, first compound 3.16 µM
[30] = second compound 0.316 µM, first compound 10 µM
[31] = second compound 1 µM, first compound 0.0316 µM
[32] = second compound 1 µM, first compound 0.1 µM
[33] = second compound 1 µM, first compound 0.316 µM
[34] = second compound 1 µM, first compound 1 µM
[35] = second compound 1 µM, first compound 3.16 µM
[36] = second compound 1 µM, first compound 10 µM
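Note: spheroids exposed to compounds for seven days before readout.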

**Q.** `C#Cc1c(F)ccc2cc(O)cc(-c3ncc4c(N5CC6CCC(C5)N6)nc(OCC56CCCN5CC(F)C6)nc4c3F)c12` (stereo unspecified) + CC(Nc1ccc2c(c1)OCCn1cc(N3C(=O)OCC3C(F)F)nc1-2)C(N)=O was tested. Which IC50 (second compound 0.00316 µM) did it give?
**A.** > 10 µM

**Q.** And the IC50 (second compound 0.01 µM)?
**A.** > 10 µM

**Q.** What about the IC50 (second compound 0.0316 µM) of the same molecule?
**A.** 5.35 µM

**Q.** What about the IC50 (second compound 0.1 µM) of the same molecule?
**A.** < 0.0316 µM

**Q.** And the IC50 (second compound 0.316 µM)?
**A.** < 0.0316 µM

**Q.** And the IC50 (second compound 1 µM)?
**A.** < 0.0316 µM

**Q.** And the viability, T/C [1]?
**A.** 89.2%

**Q.** What about the viability, T/C [2] of the same molecule?
**A.** 97.8%

**Q.** What about the viability, T/C [3] of the same molecule?
**A.** 81.8%

**Q.** And the viability, T/C [4]?
**A.** 83.5%

**Q.** And the viability, T/C [5]?
**A.** 75.3%

**Q.** And the viability, T/C [6]?
**A.** 77.4%

**Q.** What about the viability, T/C [7] of the same molecule?
**A.** 79%

**Q.** What about the viability, T/C [8] of the same molecule?
**A.** 83%

**Q.** What about the viability, T/C [9] of the same molecule?
**A.** 79.2%

**Q.** And the viability, T/C [10]?
**A.** 75%

**Q.** And the viability, T/C [11]?
**A.** 68.5%

**Q.** And the viability, T/C [12]?
**A.** 55%

**Q.** And the viability, T/C [13]?
**A.** 62.4%

**Q.** What about the viability, T/C [14] of the same molecule?
**A.** 65%

**Q.** And the viability, T/C [15]?
**A.** 55.3%

**Q.** And the viability, T/C [16]?
**A.** 60%

**Q.** What about the viability, T/C [17] of the same molecule?
**A.** 55.6%

**Q.** And the viability, T/C [18]?
**A.** 44.2%

**Q.** And the viability, T/C [19]?
**A.** 45.8%

**Q.** What about the viability, T/C [20] of the same molecule?
**A.** 43.4%

**Q.** What about the viability, T/C [21] of the same molecule?
**A.** 45.5%

**Q.** What about the viability, T/C [22] of the same molecule?
**A.** 44.9%

**Q.** And the viability, T/C [23]?
**A.** 38.5%

**Q.** What about the viability, T/C [24] of the same molecule?
**A.** 52.9%

**Q.** And the viability, T/C [25]?
**A.** 35.8%

**Q.** And the viability, T/C [26]?
**A.** 36.1%

**Q.** And the viability, T/C [27]?
**A.** 31.9%

**Q.** What about the viability, T/C [28] of the same molecule?
**A.** 31.5%

**Q.** And the viability, T/C [29]?
**A.** 25.6%

**Q.** And the viability, T/C [30]?
**A.** 24.8%

**Q.** And the viability, T/C [31]?
**A.** 26.8%

**Q.** What about the viability, T/C [32] of the same molecule?
**A.** 30.1%

**Q.** What about the viability, T/C [33] of the same molecule?
**A.** 27.2%

**Q.** And the viability, T/C [34]?
**A.** 26.6%

**Q.** And the viability, T/C [35]?
**A.** 26.1%

**Q.** What about the viability, T/C [36] of the same molecule?
**A.** 25.1%

**Q.** What does the source list for `CC1(C)CCC(Nc2ncc(C(F)(F)F)c(-c3c[nH]c4c(P(C)(C)=O)c(C#N)ccc34)n2)CN1` (stereo unspecified) + CC(Nc1ccc2c(c1)OCCn1cc(N3C(=O)OCC3C(F)F)nc1-2)C(N)=O?
**A.** IC50 (second compound 0.00316 µM): < 0.0316 µM; IC50 (second compound 0.01 µM): < 0.0316 µM; IC50 (second compound 0.0316 µM): < 0.0316 µM; IC50 (second compound 0.1 µM): < 0.0316 µM; IC50 (second compound 0.316 µM): < 0.0316 µM; IC50 (second compound 1 µM): < 0.0316 µM; viability, T/C [1]: 28.7%; viability, T/C [2]: 30%; viability, T/C [3]: 33.1%; viability, T/C [4]: 33.6%; viability, T/C [5]: 32.4%; viability, T/C [6]: 5.79%; viability, T/C [7]: 32.1%; viability, T/C [8]: 30.8%; viability, T/C [9]: 28.8%; viability, T/C [10]: 31%; viability, T/C [11]: 28.3%; viability, T/C [12]: 4.9%; viability, T/C [13]: 25.6%; viability, T/C [14]: 22.9%; viability, T/C [15]: 23.5%; viability, T/C [16]: 26.1%; viability, T/C [17]: 25.2%; viability, T/C [18]: 4.37%; viability, T/C [19]: 14.3%; viability, T/C [20]: 18.4%; viability, T/C [21]: 17.3%; viability, T/C [22]: 21.5%; viability, T/C [23]: 19.6%; viability, T/C [24]: 3.37%; viability, T/C [25]: 14.6%; viability, T/C [26]: 12.9%; viability, T/C [27]: 14.1%; viability, T/C [28]: 13.4%; viability, T/C [29]: 13%; viability, T/C [30]: 1.45%; viability, T/C [31]: 11.4%; viability, T/C [32]: 9.53%; viability, T/C [33]: 10.6%; viability, T/C [34]: 11%; viability, T/C [35]: 12.6%; viability, T/C [36]: 1.25%

**Q.** Which IC50 (second compound 0.0316 µM) does the source give for `Cn1cnc2c(F)c(Nc3ccc(Br)cc3Cl)c(C(=O)NOCCO)cc21` + CC(Nc1ncnc2nc[nH]c12)c1cc2cccc(Cl)c2c(=O)n1-c1ccccc1 here?
**A.** 0.553 µM

**Q.** What about the IC50 (second compound 0.1 µM) of the same molecule?
**A.** 0.467 µM

**Q.** And the IC50 (second compound 0.316 µM)?
**A.** 0.319 µM

**Q.** What about the IC50 (second compound 1 µM) of the same molecule?
**A.** 0.574 µM

**Q.** What about the IC50 (second compound 3.16 µM) of the same molecule?
**A.** 0.0601 µM

**Q.** And the IC50 (second compound 10 µM)?
**A.** < 0.00949 µM

**Q.** What about the viability, T/C (second compound 0.0316 µM, first compound 0.00949 µM) of the same molecule?
**A.** 66.7%

**Q.** And the viability, T/C (second compound 0.0316 µM, first compound 0.03 µM)?
**A.** 64.8%

**Q.** What about the viability, T/C (second compound 0.0316 µM, first compound 0.0949 µM) of the same molecule?
**A.** 55.7%

**Q.** And the viability, T/C (second compound 0.0316 µM, first compound 0.3 µM)?
**A.** 54.2%

**Q.** What about the viability, T/C (second compound 0.0316 µM, first compound 0.949 µM) of the same molecule?
**A.** 45.7%

**Q.** What about the viability, T/C (second compound 0.0316 µM, first compound 3 µM) of the same molecule?
**A.** 44.4%

**Q.** What about the viability, T/C (second compound 0.1 µM, first compound 0.00949 µM) of the same molecule?
**A.** 84.3%

**Q.** And the viability, T/C (second compound 0.1 µM, first compound 0.03 µM)?
**A.** 68.9%

**Q.** And the viability, T/C (second compound 0.1 µM, first compound 0.0949 µM)?
**A.** 55.1%

**Q.** And the viability, T/C (second compound 0.1 µM, first compound 0.3 µM)?
**A.** 54.9%

**Q.** And the viability, T/C (second compound 0.1 µM, first compound 0.949 µM)?
**A.** 49.8%

**Q.** What about the viability, T/C (second compound 0.1 µM, first compound 3 µM) of the same molecule?
**A.** 41.5%

**Q.** What about the viability, T/C (second compound 0.316 µM, first compound 0.00949 µM) of the same molecule?
**A.** 71.5%

**Q.** What about the viability, T/C (second compound 0.316 µM, first compound 0.03 µM) of the same molecule?
**A.** 62.2%

**Q.** And the viability, T/C (second compound 0.316 µM, first compound 0.0949 µM)?
**A.** 54.1%

**Q.** What about the viability, T/C (second compound 0.316 µM, first compound 0.3 µM) of the same molecule?
**A.** 51.1%

**Q.** And the viability, T/C (second compound 0.316 µM, first compound 0.949 µM)?
**A.** 49.1%

**Q.** And the viability, T/C (second compound 0.316 µM, first compound 3 µM)?
**A.** 40.5%

**Q.** What about the viability, T/C (second compound 1 µM, first compound 0.00949 µM) of the same molecule?
**A.** 72%

**Q.** And the viability, T/C (second compound 1 µM, first compound 0.03 µM)?
**A.** 70.1%

**Q.** What about the viability, T/C (second compound 1 µM, first compound 0.0949 µM) of the same molecule?
**A.** 51.5%

**Q.** What about the viability, T/C (second compound 1 µM, first compound 0.3 µM) of the same molecule?
**A.** 55.8%

**Q.** And the viability, T/C (second compound 1 µM, first compound 0.949 µM)?
**A.** 49.9%

**Q.** And the viability, T/C (second compound 1 µM, first compound 3 µM)?
**A.** 42.4%

**Q.** And the viability, T/C (second compound 3.16 µM, first compound 0.00949 µM)?
**A.** 56.8%

**Q.** What about the viability, T/C (second compound 3.16 µM, first compound 0.03 µM) of the same molecule?
**A.** 56%

**Q.** And the viability, T/C (second compound 3.16 µM, first compound 0.0949 µM)?
**A.** 46.3%

**Q.** What about the viability, T/C (second compound 3.16 µM, first compound 0.3 µM) of the same molecule?
**A.** 42.4%

**Q.** What about the viability, T/C (second compound 3.16 µM, first compound 0.949 µM) of the same molecule?
**A.** 40.7%

**Q.** What about the viability, T/C (second compound 3.16 µM, first compound 3 µM) of the same molecule?
**A.** 35.2%

**Q.** What about the viability, T/C (second compound 10 µM, first compound 0.00949 µM) of the same molecule?
**A.** 46.1%

**Q.** And the viability, T/C (second compound 10 µM, first compound 0.03 µM)?
**A.** 38.5%

**Q.** What about the viability, T/C (second compound 10 µM, first compound 0.0949 µM) of the same molecule?
**A.** 32.6%

**Q.** What about the viability, T/C (second compound 10 µM, first compound 0.3 µM) of the same molecule?
**A.** 30.7%

**Q.** What about the viability, T/C (second compound 10 µM, first compound 0.949 µM) of the same molecule?
**A.** 32.6%

**Q.** What about the viability, T/C (second compound 10 µM, first compound 3 µM) of the same molecule?
**A.** 24.7%
